PMC7732531 (Frontiers in Pharmacology, 2020)
Like-named read-outs stand apart in the source and are kept apart here.

What was measured:
[1] = Pharmacokinetics in rats with ABT pretreatment (intestinal and hepatic availability); conditions: for concentration at 0.25 h / concentration at 0.5 h / concentration at 1 h / concentration at 2 h / concentration at 4 h / concentration at 6 h: oral, Plasma concentration; for concentration at 0.25 h / concentration at 0.5 h / concentration at 1 h / concentration at 2 h / concentration at 4 h / concentration at 6 h / AUC(0-inf) / MRT last / E g (gut extraction) / E h (hepatic extraction) / F g / F h / F p.o. / reduction of systemic clearance: rats; for AUC(0-inf) / MRT last: p.o. YL-IPA08 (1 mg/kg); for MRT last: MRT(0–t)
[2] = Mass balance study in rats via oral administration; conditions: rat, feces
[3] = Protein binding by rapid equilibrium dialysis, rat brain homogenate; format: in vitro ADME
Procedure: The fraction of unbound YL-IPA08 in plasma and liver microsomes of rat and human, and brain homogenates of rat were determined utilizing Rapid Equilibrium Dialysis method ([Waters et al., 2008]). Rat brain homogenate was harvested in 4-fold volume (w/v) of PBS (pH 7.4). YL-IPA08 were spiked into fresh plasma, rat brain homogenate, liver microsomes (0.2 mg/ml protein) at concentration of 1 µM, and then dialyzed against biomatrices on a shaker at 37°C for 4 h. To avoid the high non-specific binding of YL-IPA08, 0.01% Tween 80 was added in the incubation mixture. At the end of the incubation, protein was precipitated with acetonitrile (containing IS) and analyzed by LC-MS/MS. Phenacetin, quinidine, and warfarin were selected as positive control for the protein binding test.
The unbound fraction of YL-IPA08 in plasma or liver microsomes (ƒu,x) was calculated as shown in Eq. 2, and unbound fraction in the tissue homogenate (ƒu,b) was calculated according to Eq. 3. fu,x = Concbuffer chamber/Concplasma/liver microsomes chamber (2) fu,b = Concbuffer chamber/Concbrain homogenate chamber (3) The measured unbound fractions would be higher when a tissue is homogenized and diluted in buffer, the unbound fractions in an undiluted tissues (ƒu,brain) were calculated using Eq. 4 ([Kalvass and Maurer, 2002]). Undiluted fu,brain=1/D/((1/fu,brain homogenate)−1)+1/D (4) Where D represents the fold of dilution factor in brain homogenates.

[4] = rat, microsomes, 0 h, 1 μM, pH 7.4
[5] = human, microsomes, 0 h, 1 μM, pH 7.4
[6] = rat, plasma, po, 1 mg/kg, i.v. ABT
[7] = rat, plasma, po, 1 mg/kg, p.o. ABT
[8] = rat, plasma, po, 1 mg/kg, with ABT 50 mg/kg i.v., 1 h before dosing
[9] = rat, plasma, po, 1 mg/kg, with ABT 100 mg/kg p.o., 15 h before dosing

CCN(Cc1ccccn1)C(=O)Cc1c(-c2ccc(Cl)c(Cl)c2)nc2cc(C)ccn12 [YL-IPA08]
concentration at 0.25 h ([1]; rat, plasma, i.v. 50 mg/kg ABT, p.o. 1mg/kg YL-IPA08, 0.25 h): 28.2 ± 25.2 ng/mL
concentration at 0.5 h ([1]; rat, plasma, i.v. 50 mg/kg ABT, p.o. 1mg/kg YL-IPA08, 0.5 h): 30.3 ± 35.4 ng/mL
concentration at 1 h ([1]; rat, plasma, i.v. 50 mg/kg ABT, p.o. 1mg/kg YL-IPA08, 1 h): 34.8 ± 50.4 ng/mL
concentration at 2 h ([1]; rat, plasma, i.v. 50 mg/kg ABT, p.o. 1mg/kg YL-IPA08, 2 h): 30.5 ± 42 ng/mL
concentration at 4 h ([1]; rat, plasma, i.v. 50 mg/kg ABT, p.o. 1mg/kg YL-IPA08, 4 h): 13.3 ± 17.1 ng/mL
concentration at 6 h ([1]; rat, plasma, i.v. 50 mg/kg ABT, p.o. 1mg/kg YL-IPA08, 6 h): 6.4 ± 4.73 ng/mL
concentration at 0.25 h ([1]; rat, plasma, p.o. 100 mg/kg ABT, p.o. 1 mg/kg YL-IPA08, 0.25 h): 403 ± 402 ng/mL
concentration at 0.5 h ([1]; rat, plasma, p.o. 100 mg/kg ABT, p.o. 1 mg/kg YL-IPA08, 0.5 h): 370 ± 354 ng/mL
concentration at 1 h ([1]; rat, plasma, p.o. 100 mg/kg ABT, p.o. 1 mg/kg YL-IPA08, 1 h): 334 ± 247 ng/mL
concentration at 2 h ([1]; rat, plasma, p.o. 100 mg/kg ABT, p.o. 1 mg/kg YL-IPA08, 2 h): 246 ± 150 ng/mL
concentration at 4 h ([1]; rat, plasma, p.o. 100 mg/kg ABT, p.o. 1 mg/kg YL-IPA08, 4 h): 125 ± 71.7 ng/mL
concentration at 6 h ([1]; rat, plasma, p.o. 100 mg/kg ABT, p.o. 1 mg/kg YL-IPA08, 6 h): 47.7 ± 28.6 ng/mL
AUC(0-t) ([1]; rat, plasma, po, 1 mg/kg): 185 ± 148 ng·h/mL
AUC(0-inf) [1, 6]: 188 ± 146 ng·h/mL
AUC(0-inf) [1, 7]: 876 ± 183 ng·h/mL
MRT last [1, 6]: 8.37 ± 3.67 h
MRT last [1, 7]: 5.51 ± 1.25 h
Cmax [1, 8]: 41.8 ± 42 ng/mL
Tmax [1, 8]: 0.87 ± 0.68 h
AUC(0-t) [1, 9]: 868 ± 185 ng·h/mL
Cmax [1, 9]: 176 ± 88.5 ng/mL
Tmax [1, 9]: 1.4 ± 1.32 h
bioavailability [1, 9]: 69.7%
E g (gut extraction) ([1]; ABT i.v.): 75%
E h (hepatic extraction) ([1]; ABT i.v.): 20%
F g ([1]; ABT i.v.): 25%
F h ([1]; ABT i.v.): 80%
F p.o. ([1]; ABT i.v.): ~20%
E g (gut extraction) ([1]; ABT p.o.): 16%
E h (hepatic extraction) ([1]; ABT p.o.): 17%
F g ([1]; ABT p.o.): 84%
F h ([1]; ABT p.o.): 83%
F p.o. ([1]; ABT p.o.): ~70%
reduction of systemic clearance ([1]; ABT pretreatment through i.v. injection): about 75%
reduction of systemic clearance ([1]; ABT pretreatment through oral gavage): ~80%
E g (gut extraction) ([1]; No ABT): 65%
E h (hepatic extraction) ([1]; No ABT): 83%
F g ([1]; No ABT): 35%
F h ([1]; No ABT): 17%
F p.o. ([1]; No ABT): 6%
dose excreted [2]: 0.004%
Protein biding (%) ([3]; Rat brain homogenate, 1 µM, dialysis 4 h): 99.51 ± 0.01%
Concentration, Cbuffer chamber ([3]; Rat brain homogentate, 4 h): 18.85 ± 0.21 nM
Concentration, Cplasma/microsome chamber ([3]; rat, 4 h, 1 µM, pH 7.4): 788.33 ± 8.39 nM
fraction unbound at 4 h, 1 µM ([3]; rat, brain homogenate, pH 7.4): 0.0049
percent of remaining [4]: 100.00%
percent of remaining [5]: 100.00%
